Test results from PubChem BioAssay (NCI).
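The compound was tested at five concentrations on cells cultured in 96-well plates, with a 48-hour exposure period. GI50 marks 50% less growth. TGI is the concentration that stops growth completely.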

Columns and labels:
Test in all cases: inhibition of tumour cell growth, NCI panel, 48 h
A498 renal = test system: A498 renal
A549 NSCLC = test system: A549 NSCLC
ACHN renal = test system: ACHN renal
BT-549 breast = test system: BT-549 breast
CAKI-1 renal = test system: CAKI-1 renal
CCRF-CEM leukemia = test system: CCRF-CEM leukemia
COLO 205 colon = test system: COLO 205 colon
DU-145 prostate = test system: DU-145 prostate
EKVX NSCLC = test system: EKVX NSCLC
HCT-15 colon = test system: HCT-15 colon
HS 578T breast = test system: HS 578T breast
HT29 colon = test system: HT29 colon
IGROV1 ovarian = test system: IGROV1 ovarian
KM12 colon = test system: KM12 colon
M14 melanoma = test system: M14 melanoma
MCF7 breast = test system: MCF7 breast
MDA-MB-435 = test system: MDA-MB-435
NCI-H226 lung = test system: NCI-H226 lung
NCI-H23 lung = test system: NCI-H23 lung
NCI-H522 lung = test system: NCI-H522 lung
NCI/ADR-RES ovarian = test system: NCI/ADR-RES ovarian
OVCAR-3 ovarian = test system: OVCAR-3 ovarian
OVCAR-5 ovarian = test system: OVCAR-5 ovarian
OVCAR-8 ovarian = test system: OVCAR-8 ovarian
PC-3 prostate = test system: PC-3 prostate
SF-295 CNS = test system: SF-295 CNS
SF-539 CNS = test system: SF-539 CNS
SK-MEL-2 melanoma = test system: SK-MEL-2 melanoma
SK-MEL-28 melanoma = test system: SK-MEL-28 melanoma
SK-OV-3 ovarian = test system: SK-OV-3 ovarian
SR leukemia = test system: SR leukemia
T-47D breast = test system: T-47D breast
TK-10 renal = test system: TK-10 renal
UACC-257 melanoma = test system: UACC-257 melanoma
UACC-62 melanoma = test system: UACC-62 melanoma
UO-31 renal = test system: UO-31 renal
786-0 renal = test system: 786-0 renal
HCC-2998 colon = test system: HCC-2998 colon
HCT-116 colon = test system: HCT-116 colon
HL-60(TB) leukemia = test system: HL-60(TB) leukemia
HOP-62 NSCLC = test system: HOP-62 NSCLC
HOP-92 NSCLC = test system: HOP-92 NSCLC
K-562 leukemia = test system: K-562 leukemia
LOX IMVI melanoma = test system: LOX IMVI melanoma
MALME-3M melanoma = test system: MALME-3M melanoma
MDA-MB-231 breast = test system: MDA-MB-231 breast
MOLT-4 leukemia = test system: MOLT-4 leukemia
NCI-H460 lung = test system: NCI-H460 lung
OVCAR-4 ovarian = test system: OVCAR-4 ovarian
RPMI-8226 leukemia = test system: RPMI-8226 leukemia
RXF 393 renal = test system: RXF 393 renal
SF-268 CNS = test system: SF-268 CNS
SK-MEL-5 melanoma = test system: SK-MEL-5 melanoma
SN12C renal = test system: SN12C renal
SNB-19 CNS = test system: SNB-19 CNS
SNB-75 CNS = test system: SNB-75 CNS
SW-620 colon = test system: SW-620 colon
U251 CNS = test system: U251 CNS

CCCCCCCCCCCCCCCC[N+](C)(C)Cc1ccc(F)cc1
TGI (A498 renal): 88700 nM | TGI (A549 NSCLC): 11300 nM | TGI (ACHN renal): 10100 nM | TGI (BT-549 breast): 8870 nM | TGI (CAKI-1 renal): 15600 nM | TGI (CCRF-CEM leukemia): 3280 nM | TGI (COLO 205 colon): 2870 nM | TGI (DU-145 prostate): 20800 nM | TGI (EKVX NSCLC): 6010 nM | TGI (HCT-15 colon): 34900 nM | TGI (HS 578T breast): 3440 nM | TGI (HT29 colon): 5780 nM | TGI (IGROV1 ovarian): 1570 nM | TGI (KM12 colon): 2330 nM | TGI (M14 melanoma): 3050 nM | TGI (MCF7 breast): 3670 nM | TGI (MDA-MB-435): 3990 nM | TGI (NCI-H226 lung): 9580 nM | TGI (NCI-H23 lung): 14200 nM | TGI (NCI-H522 lung): 2030 nM | TGI (NCI/ADR-RES ovarian): 57100 nM | TGI (OVCAR-3 ovarian): 5490 nM | TGI (OVCAR-5 ovarian): 3790 nM | TGI (OVCAR-8 ovarian): 3110 nM | TGI (PC-3 prostate): 2510 nM | TGI (SF-295 CNS): 7690 nM | TGI (SF-539 CNS): 2310 nM | TGI (SK-MEL-2 melanoma): 2820 nM | TGI (SK-MEL-28 melanoma): 15100 nM | TGI (SK-OV-3 ovarian): 6680 nM | TGI (SR leukemia): 4230 nM | TGI (T-47D breast): 25900 nM | TGI (TK-10 renal): 4800 nM | TGI (UACC-257 melanoma): 4920 nM | TGI (UACC-62 melanoma): 4450 nM | TGI (UO-31 renal): 31100 nM

COc1ccc2[nH]c(=O)c(/C=C/C(=O)c3ccccc3OC)cc2c1
GI50 (786-0 renal): 378 nM | TGI (786-0 renal): 1560 nM | GI50 (A498 renal): 656 nM | TGI (A498 renal): 4550 nM | GI50 (A549 NSCLC): 2090 nM | TGI (A549 NSCLC): 10400 nM | GI50 (BT-549 breast): 387 nM | TGI (BT-549 breast): 2420 nM | GI50 (CCRF-CEM leukemia): 392 nM | TGI (CCRF-CEM leukemia): > 100000 nM | GI50 (DU-145 prostate): 529 nM | TGI (DU-145 prostate): 1960 nM | GI50 (EKVX NSCLC): 2050 nM | TGI (EKVX NSCLC): 10500 nM | GI50 (HCC-2998 colon): 1570 nM | TGI (HCC-2998 colon): 3030 nM | GI50 (HCT-116 colon): 348 nM | TGI (HCT-116 colon): 1480 nM | GI50 (HCT-15 colon): 395 nM | TGI (HCT-15 colon): 2050 nM | GI50 (HL-60(TB) leukemia): 206 nM | TGI (HL-60(TB) leukemia): 883 nM | GI50 (HOP-62 NSCLC): 1240 nM | TGI (HOP-62 NSCLC): 5320 nM | GI50 (HOP-92 NSCLC): 1570 nM | TGI (HOP-92 NSCLC): 6170 nM | GI50 (HT29 colon): 293 nM | TGI (HT29 colon): 1370 nM | GI50 (IGROV1 ovarian): 582 nM | TGI (IGROV1 ovarian): 17000 nM | GI50 (K-562 leukemia): 162 nM | TGI (K-562 leukemia): > 100000 nM | GI50 (KM12 colon): 321 nM | TGI (KM12 colon): 1580 nM | GI50 (LOX IMVI melanoma): 379 nM | TGI (LOX IMVI melanoma): 1610 nM | GI50 (M14 melanoma): 278 nM | TGI (M14 melanoma): 1410 nM | GI50 (MALME-3M melanoma): 766 nM | TGI (MALME-3M melanoma): 8090 nM | GI50 (MCF7 breast): 312 nM | TGI (MCF7 breast): 7480 nM | GI50 (MDA-MB-231 breast): 1440 nM | TGI (MDA-MB-231 breast): 11000 nM | GI50 (MDA-MB-435): 56.4 nM | TGI (MDA-MB-435): 275 nM | GI50 (MOLT-4 leukemia): 421 nM | TGI (MOLT-4 leukemia): 27100 nM | GI50 (NCI-H226 lung): 3340 nM | TGI (NCI-H226 lung): 18500 nM | GI50 (NCI-H23 lung): 1330 nM | TGI (NCI-H23 lung): 3930 nM | GI50 (NCI-H460 lung): 380 nM | TGI (NCI-H460 lung): 2250 nM | GI50 (NCI-H522 lung): 352 nM | TGI (NCI-H522 lung): 2060 nM | GI50 (NCI/ADR-RES ovarian): 273 nM | TGI (NCI/ADR-RES ovarian): 20000 nM | GI50 (OVCAR-3 ovarian): 359 nM | TGI (OVCAR-3 ovarian): 1640 nM | GI50 (OVCAR-4 ovarian): 4070 nM | TGI (OVCAR-4 ovarian): 23200 nM | GI50 (OVCAR-5 ovarian): 1970 nM | TGI (OVCAR-5 ovarian): 10400 nM | GI50 (OVCAR-8 ovarian): 874 nM | TGI (OVCAR-8 ovarian): 11600 nM | GI50 (PC-3 prostate): 842 nM | TGI (PC-3 prostate): 3750 nM | GI50 (RPMI-8226 leukemia): 385 nM | TGI (RPMI-8226 leukemia): 2210 nM | GI50 (RXF 393 renal): 1020 nM | TGI (RXF 393 renal): 2570 nM | GI50 (SF-268 CNS): 690 nM | TGI (SF-268 CNS): 10500 nM | GI50 (SF-295 CNS): 529 nM | TGI (SF-295 CNS): 12100 nM | GI50 (SF-539 CNS): 443 nM | TGI (SF-539 CNS): 2490 nM | GI50 (SK-MEL-2 melanoma): 694 nM | TGI (SK-MEL-2 melanoma): 4390 nM | GI50 (SK-MEL-28 melanoma): 1520 nM | TGI (SK-MEL-28 melanoma): 7310 nM | GI50 (SK-MEL-5 melanoma): 728 nM | TGI (SK-MEL-5 melanoma): 2080 nM | GI50 (SK-OV-3 ovarian): 2230 nM | TGI (SK-OV-3 ovarian): 12800 nM | GI50 (SN12C renal): 537 nM | TGI (SN12C renal): 10300 nM | GI50 (SNB-19 CNS): 362 nM | TGI (SNB-19 CNS): 1790 nM | GI50 (SNB-75 CNS): 470 nM | TGI (SNB-75 CNS): 14200 nM | GI50 (SR leukemia): 65.6 nM | TGI (SR leukemia): 10300 nM | GI50 (SW-620 colon): 335 nM | TGI (SW-620 colon): 2240 nM | GI50 (T-47D breast): 1060 nM | TGI (T-47D breast): 11800 nM | GI50 (TK-10 renal): 2310 nM | TGI (TK-10 renal): 13100 nM | GI50 (U251 CNS): 521 nM | TGI (U251 CNS): 1700 nM | GI50 (UACC-257 melanoma): 1380 nM | TGI (UACC-257 melanoma): 3050 nM | GI50 (UACC-62 melanoma): 478 nM | TGI (UACC-62 melanoma): 2970 nM | GI50 (UO-31 renal): 958 nM | TGI (UO-31 renal): 2280 nM
